Reference: ChEMBL document CHEMBL5291721, “A preclinical secondary pharmacology resource illuminates target-adverse drug reaction associations of marketed drugs” (Nat Commun, 2023)

Experiments:
[1] = target: T1, Gastrin/cholecystokinin type B receptor (Homo sapiens, UniProt P32239)
T1 sequence (P32239 whole entry): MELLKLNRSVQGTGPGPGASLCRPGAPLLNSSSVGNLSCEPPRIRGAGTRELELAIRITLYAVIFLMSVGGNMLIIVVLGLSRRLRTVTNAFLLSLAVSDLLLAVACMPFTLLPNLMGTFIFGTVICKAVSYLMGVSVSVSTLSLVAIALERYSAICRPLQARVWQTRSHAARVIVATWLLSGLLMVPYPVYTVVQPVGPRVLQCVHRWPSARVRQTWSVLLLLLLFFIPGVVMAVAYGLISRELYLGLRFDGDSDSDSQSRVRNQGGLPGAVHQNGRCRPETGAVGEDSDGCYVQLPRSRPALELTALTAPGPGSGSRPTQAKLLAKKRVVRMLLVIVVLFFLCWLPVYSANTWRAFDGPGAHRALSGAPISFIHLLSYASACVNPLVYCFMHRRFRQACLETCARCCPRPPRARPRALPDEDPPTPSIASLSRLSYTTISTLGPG

[2] = target: Sodium-dependent serotonin transporter (Homo sapiens, UniProt P31645)
[3] = target: T2, Muscarinic acetylcholine receptor M1 (Homo sapiens, UniProt P11229); type: functional
T2 sequence (P11229 whole entry): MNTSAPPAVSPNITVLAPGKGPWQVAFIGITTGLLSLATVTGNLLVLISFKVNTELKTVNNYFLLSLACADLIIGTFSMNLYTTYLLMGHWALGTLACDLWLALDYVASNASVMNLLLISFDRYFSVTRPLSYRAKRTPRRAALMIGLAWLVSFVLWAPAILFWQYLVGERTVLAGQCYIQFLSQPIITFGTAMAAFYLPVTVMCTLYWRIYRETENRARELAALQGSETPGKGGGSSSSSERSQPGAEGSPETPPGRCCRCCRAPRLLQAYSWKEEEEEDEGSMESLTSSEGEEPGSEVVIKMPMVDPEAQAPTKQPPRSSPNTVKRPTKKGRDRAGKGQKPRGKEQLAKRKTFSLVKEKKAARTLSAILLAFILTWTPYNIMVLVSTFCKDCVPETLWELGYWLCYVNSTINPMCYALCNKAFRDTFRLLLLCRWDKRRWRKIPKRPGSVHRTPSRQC

[4] = target: Sodium-dependent noradrenaline transporter (Homo sapiens, UniProt P23975)
Vasopressin V1a receptor = Vasopressin V1a receptor (Homo sapiens, UniProt P37288)
[5] = target: T3, Equilibrative nucleoside transporter 1 (Homo sapiens, UniProt Q99808)
T3 sequence (Q99808 whole entry): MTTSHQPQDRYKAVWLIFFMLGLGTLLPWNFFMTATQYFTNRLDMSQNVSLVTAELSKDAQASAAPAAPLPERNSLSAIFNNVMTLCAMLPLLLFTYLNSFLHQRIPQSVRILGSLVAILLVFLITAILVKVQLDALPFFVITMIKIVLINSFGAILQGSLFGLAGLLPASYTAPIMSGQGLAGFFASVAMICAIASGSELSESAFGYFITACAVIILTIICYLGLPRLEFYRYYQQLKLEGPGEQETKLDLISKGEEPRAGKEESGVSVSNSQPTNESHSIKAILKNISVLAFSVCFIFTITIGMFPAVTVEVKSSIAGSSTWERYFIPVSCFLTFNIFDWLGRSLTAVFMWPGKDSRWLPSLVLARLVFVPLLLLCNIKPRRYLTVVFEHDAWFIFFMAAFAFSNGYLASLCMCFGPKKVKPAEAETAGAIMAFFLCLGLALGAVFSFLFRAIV

Progesterone receptor [6] = target: T4, Progesterone receptor (Homo sapiens, UniProt P06401); type: functional
T4 sequence (P06401 whole entry): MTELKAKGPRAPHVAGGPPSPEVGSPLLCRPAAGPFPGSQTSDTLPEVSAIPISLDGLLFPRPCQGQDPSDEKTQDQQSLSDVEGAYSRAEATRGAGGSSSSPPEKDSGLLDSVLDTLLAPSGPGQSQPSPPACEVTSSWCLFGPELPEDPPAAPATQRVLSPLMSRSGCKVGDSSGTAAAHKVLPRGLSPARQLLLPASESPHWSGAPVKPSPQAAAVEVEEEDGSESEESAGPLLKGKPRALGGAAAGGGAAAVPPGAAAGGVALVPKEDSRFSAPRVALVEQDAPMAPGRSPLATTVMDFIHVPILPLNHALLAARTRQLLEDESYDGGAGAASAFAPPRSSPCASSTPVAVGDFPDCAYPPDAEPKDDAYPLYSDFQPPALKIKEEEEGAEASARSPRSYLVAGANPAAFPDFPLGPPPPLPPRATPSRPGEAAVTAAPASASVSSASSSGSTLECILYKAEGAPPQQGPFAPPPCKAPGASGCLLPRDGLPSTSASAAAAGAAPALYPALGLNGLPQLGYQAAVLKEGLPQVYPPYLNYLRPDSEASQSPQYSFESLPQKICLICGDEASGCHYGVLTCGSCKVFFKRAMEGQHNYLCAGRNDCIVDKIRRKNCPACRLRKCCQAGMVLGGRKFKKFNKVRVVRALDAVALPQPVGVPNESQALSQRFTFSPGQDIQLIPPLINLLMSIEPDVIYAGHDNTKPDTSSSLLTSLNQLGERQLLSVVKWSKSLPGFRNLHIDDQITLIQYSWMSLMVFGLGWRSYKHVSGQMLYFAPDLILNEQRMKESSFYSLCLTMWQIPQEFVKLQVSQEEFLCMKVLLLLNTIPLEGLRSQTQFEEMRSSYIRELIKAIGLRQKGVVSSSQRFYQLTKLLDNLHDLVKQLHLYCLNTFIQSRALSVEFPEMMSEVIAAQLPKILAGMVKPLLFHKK

Progesterone receptor [7] = target: T4, Progesterone receptor; type: functional; remark: listed apart in the source
[8] = target: T5, 5-hydroxytryptamine receptor 1A (Homo sapiens, UniProt P08908); type: functional, cell-based
T5 sequence (P08908 whole entry): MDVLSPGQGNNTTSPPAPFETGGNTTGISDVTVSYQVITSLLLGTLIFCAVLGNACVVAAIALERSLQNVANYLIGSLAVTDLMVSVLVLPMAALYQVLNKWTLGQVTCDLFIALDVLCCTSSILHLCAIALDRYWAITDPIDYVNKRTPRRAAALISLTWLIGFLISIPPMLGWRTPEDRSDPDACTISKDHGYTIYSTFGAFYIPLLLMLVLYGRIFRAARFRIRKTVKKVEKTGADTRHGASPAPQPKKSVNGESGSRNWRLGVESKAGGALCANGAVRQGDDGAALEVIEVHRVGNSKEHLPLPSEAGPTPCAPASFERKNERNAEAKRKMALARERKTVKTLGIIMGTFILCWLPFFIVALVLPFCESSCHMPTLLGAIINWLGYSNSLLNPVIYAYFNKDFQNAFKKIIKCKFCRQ
Note: assay procedure not described here.

Sequence of Sodium-dependent serotonin transporter (P31645 whole entry): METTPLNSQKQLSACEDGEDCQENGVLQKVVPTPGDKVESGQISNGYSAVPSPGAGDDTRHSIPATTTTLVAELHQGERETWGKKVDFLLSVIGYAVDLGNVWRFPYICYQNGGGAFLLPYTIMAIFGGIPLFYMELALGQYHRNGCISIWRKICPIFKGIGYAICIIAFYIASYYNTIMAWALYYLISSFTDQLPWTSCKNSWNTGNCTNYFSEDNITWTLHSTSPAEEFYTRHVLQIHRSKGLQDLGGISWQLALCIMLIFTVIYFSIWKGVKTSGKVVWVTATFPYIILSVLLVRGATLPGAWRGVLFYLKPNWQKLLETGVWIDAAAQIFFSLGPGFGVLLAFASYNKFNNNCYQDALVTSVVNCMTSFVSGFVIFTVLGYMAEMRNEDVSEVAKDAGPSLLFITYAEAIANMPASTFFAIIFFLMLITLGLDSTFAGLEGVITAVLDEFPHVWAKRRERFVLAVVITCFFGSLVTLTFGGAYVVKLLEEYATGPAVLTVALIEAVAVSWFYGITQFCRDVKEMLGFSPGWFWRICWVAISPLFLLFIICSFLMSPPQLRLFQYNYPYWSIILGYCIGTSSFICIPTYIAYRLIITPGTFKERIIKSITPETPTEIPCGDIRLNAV
Sequence of Sodium-dependent noradrenaline transporter (P23975 whole entry): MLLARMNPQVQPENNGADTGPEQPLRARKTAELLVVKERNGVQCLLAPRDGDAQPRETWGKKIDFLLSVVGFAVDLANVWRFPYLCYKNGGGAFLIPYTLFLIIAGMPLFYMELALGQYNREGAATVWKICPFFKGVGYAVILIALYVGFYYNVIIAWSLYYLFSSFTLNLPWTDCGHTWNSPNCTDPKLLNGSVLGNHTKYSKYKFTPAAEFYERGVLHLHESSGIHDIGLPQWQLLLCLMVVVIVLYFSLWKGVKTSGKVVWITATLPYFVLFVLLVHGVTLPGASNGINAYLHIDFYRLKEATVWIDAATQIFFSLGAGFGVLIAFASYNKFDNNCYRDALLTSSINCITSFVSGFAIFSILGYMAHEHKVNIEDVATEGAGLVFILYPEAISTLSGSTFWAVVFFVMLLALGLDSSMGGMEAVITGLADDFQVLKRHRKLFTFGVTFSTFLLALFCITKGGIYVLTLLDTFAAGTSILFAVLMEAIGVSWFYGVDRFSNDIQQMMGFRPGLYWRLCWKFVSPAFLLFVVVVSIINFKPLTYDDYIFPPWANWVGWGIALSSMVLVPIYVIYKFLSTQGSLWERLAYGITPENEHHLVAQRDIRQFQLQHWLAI
Sequence of Vasopressin V1a receptor (P37288 whole entry): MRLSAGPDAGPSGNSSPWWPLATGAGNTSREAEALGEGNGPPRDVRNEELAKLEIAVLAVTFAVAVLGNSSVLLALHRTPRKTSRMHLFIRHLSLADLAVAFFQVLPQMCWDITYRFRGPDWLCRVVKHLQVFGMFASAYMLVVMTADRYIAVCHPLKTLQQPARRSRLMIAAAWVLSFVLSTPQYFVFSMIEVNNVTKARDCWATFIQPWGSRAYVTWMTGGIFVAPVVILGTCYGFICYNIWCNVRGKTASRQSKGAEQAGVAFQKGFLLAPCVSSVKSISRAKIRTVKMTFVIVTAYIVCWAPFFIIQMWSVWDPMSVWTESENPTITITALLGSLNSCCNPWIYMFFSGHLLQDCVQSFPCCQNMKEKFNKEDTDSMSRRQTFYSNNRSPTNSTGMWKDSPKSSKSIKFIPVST

Structure (SMILES) | AC50 [1] | AC50 [2] | AC50 [3] | AC50 [4] | AC50 (Vasopressin V1a receptor) | AC50 [5] | AC50 (Progesterone receptor [6]) | AC50 (Progesterone receptor [7]) | AC50 [8]
C[C@]1(COc2ccc(N3CCC(Oc4ccc(OC(F)(F)F)cc4)CC3)cc2)Cn2cc([N+](=O)[O-])nc2O1 | > 30 µM | > 10 µM | > 10 µM | > 10 µM | > 10 µM | – | – | – | –
CC(=O)OCC[N+](C)(C)C [ACETYLCHOLINE] | > 30 µM | > 30 µM | – | > 30 µM | > 30 µM | > 30 µM | 29 µM | > 30 µM | –
O=C(Nc1nc(-c2cc(Cl)cs2)c(N2CCN(C3CCCCC3)CC2)s1)c1cnc(N2CCC(C(=O)O)CC2)c(Cl)c1 [AVATROMBOPAG] | > 10 µM | > 10 µM | > 10 µM | > 10 µM | > 10 µM | > 10 µM | – | – | –
CN(C)C(=O)Oc1cc(OC(=O)N(C)C)cc(C(O)CNC(C)(C)C)c1 (stereo not given) [BAMBUTEROL] | > 30 µM | – | – | > 30 µM | > 30 µM | > 30 µM | > 30 µM | > 30 µM | –
C[C@H]1C[C@H]2[C@@H]3CCC4=CC(=O)C=C[C@]4(C)[C@@]3(Cl)[C@@H](O)C[C@]2(C)[C@@]1(O)C(=O)CO [BECLOMETHASONE] | > 30 µM | – | – | > 10 µM | > 10 µM | > 30 µM | – | – | –
CO[C@@]1(NC(=O)CSCC#N)C(=O)N2C(C(=O)O)=C(CSc3nnnn3C)CS[C@@H]21 [CEFMETAZOLE] | – | – | – | – | – | – | – | – | > 30 µM
CO/N=C(\C(=O)N[C@@H]1C(=O)N2C(C(=O)[O-])=C(C[n+]3cccc4c3CCC4)CS[C@H]12)c1csc(N)n1 [CEFPIROME] | – | – | > 30 µM | – | – | – | – | – | –
NS(=O)(=O)c1cc(C2(O)NC(=O)c3ccccc32)ccc1Cl (stereo not given) [CHLORTHALIDONE] | – | – | – | > 10 µM | – | > 10 µM | > 10 µM | > 10 µM | > 10 µM
CC[C@H]1OC(=O)[C@H](C)[C@@H](O[C@H]2C[C@@](C)(OC)[C@@H](O)[C@H](C)O2)[C@H](C)[C@@H](O[C@@H]2O[C@H](C)C[C@H](N(C)C)[C@H]2O)[C@](C)(OC)C[C@@H](C)C(=O)[C@H](C)[C@@H](O)[C@]1(C)O [CLARITHROMYCIN] | > 30 µM | – | – | > 30 µM | > 30 µM | > 30 µM | > 30 µM | > 30 µM | –
Oc1c(I)cc(Cl)c2cccnc12 [CLIOQUINOL] | – | – | > 30 µM | – | – | – | – | – | > 30 µM
COc1ccc2c(c1)[C@]13CCCC[C@@H]1[C@H](C2)N(C)CC3 [DEXTROMETHORPHAN] | > 30 µM | – | – | – | > 10 µM | > 30 µM | – | – | > 10 µM
O=c1oc2ccccc2c(O)c1Cc1c(O)c2ccccc2oc1=O [DICUMAROL] | – | – | – | > 10 µM | – | > 10 µM | > 10 µM | > 10 µM | > 10 µM
CCn1cc(C(=O)O)c(=O)c2cc(F)c(N3CCNCC3)nc21 [ENOXACIN] | > 30 µM | – | – | > 10 µM | > 10 µM | > 30 µM | – | – | > 10 µM
O=C(O)CSCC(=O)NC1CCSC1=O (stereo not given) [ERDOSTEINE] | > 30 µM | > 30 µM | > 30 µM | > 30 µM | > 30 µM | > 30 µM | > 30 µM | > 30 µM | –
COc1cccc(N(C)C(=S)Oc2ccc3c(c2)CCCC3)n1 [LIRANAFTATE] | > 30 µM | > 30 µM | > 30 µM | > 30 µM | > 30 µM | > 30 µM | > 30 µM | > 30 µM | –
C#C[C@]1(O)CC[C@H]2[C@@H]3CCc4cc(OC)ccc4[C@H]3CC[C@@]21C [MESTRANOL] | – | – | – | 10.9 µM | – | > 30 µM | 0.096 µM | – | > 10 µM
N=C(N)c1ccc2cc(OC(=O)c3ccc(N=C(N)N)cc3)ccc2c1 [NAFAMOSTAT] | > 30 µM | 8.2 µM | 8.7 µM | – | > 30 µM | – | > 30 µM | – | –
CNC(=O)Oc1ccc2c(c1)[C@]1(C)CCN(C)[C@@H]1N2C [PHYSOSTIGMINE] | > 30 µM | – | – | > 30 µM | > 30 µM | > 30 µM | > 30 µM | > 30 µM | > 30 µM
CNCCCC1c2ccccc2C=Cc2ccccc21 [PROTRIPTYLINE] | – | – | – | – | > 10 µM | > 30 µM | > 10 µM | > 10 µM | > 10 µM
COCCCOc1ccnc(C[S+]([O-])c2nc3ccccc3[nH]2)c1C (stereo not given) [RABEPRAZOLE] | > 30 µM | – | – | > 10 µM | > 10 µM | > 30 µM | – | – | > 10 µM
CC(C)=CCOc1ccc(/C=C/C(=O)c2ccc(OCC=C(C)C)cc2OCC(=O)O)cc1 [SOFALCONE] | > 30 µM | > 30 µM | > 30 µM | 26 µM | > 30 µM | > 30 µM | > 30 µM | 9.4 µM | –
O=C(CCCN1CCC2(CC1)C(=O)NCN2c1ccccc1)c1ccc(F)cc1 [SPIPERONE] | > 30 µM | 0.0086 µM | > 30 µM | – | > 30 µM | – | > 30 µM | > 30 µM | –
CCSc1ccc2c(c1)N(CCCN1CCN(C)CC1)c1ccccc1S2 [THIETHYLPERAZINE] | – | – | 16 µM | 9.6 µM | – | – | > 30 µM | > 30 µM | –
CN(C)c1cc(NC(=O)CNC(C)(C)C)c(O)c2c1C[C@H]1C[C@H]3[C@H](N(C)C)C(O)=C(C(N)=O)C(=O)[C@@]3(O)C(O)=C1C2=O [TIGECYCLINE] | > 30 µM | > 30 µM | 27 µM | > 30 µM | > 30 µM | 39.5 µM | > 30 µM | > 30 µM | –
